Assay results reported in PubChem BioAssay (NCI).
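In this assay, cells in 96-well plates receive the compound at five concentrations for 48 hours. Endpoints are linearly interpolated between the surrounding concentrations. At the TGI there is no net growth.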

How the values were obtained:
Experiment in all cases: inhibition of tumour cell growth, NCI panel, 48 h
SF-295 CNS = tested on: SF-295 CNS
MCF7 breast = tested on: MCF7 breast
HOP-62 NSCLC = tested on: HOP-62 NSCLC
MDA-N = tested on: MDA-N
A498 renal = tested on: A498 renal
HCT-15 colon = tested on: HCT-15 colon
K-562 leukemia = tested on: K-562 leukemia
CAKI-1 renal = tested on: CAKI-1 renal
UACC-257 melanoma = tested on: UACC-257 melanoma
UO-31 renal = tested on: UO-31 renal
M14 melanoma = tested on: M14 melanoma
MDA-MB-435 = tested on: MDA-MB-435
T-47D breast = tested on: T-47D breast
RPMI-8226 leukemia = tested on: RPMI-8226 leukemia
NCI-H23 lung = tested on: NCI-H23 lung
SK-OV-3 ovarian = tested on: SK-OV-3 ovarian
SK-MEL-5 melanoma = tested on: SK-MEL-5 melanoma
HT29 colon = tested on: HT29 colon
MDA-MB-231 breast = tested on: MDA-MB-231 breast

| SMILES | TGI (SF-295 CNS) | TGI (MCF7 breast) | TGI (HOP-62 NSCLC) | TGI (MDA-N) | TGI (A498 renal) | TGI (HCT-15 colon) | TGI (K-562 leukemia) | TGI (CAKI-1 renal) | TGI (UACC-257 melanoma) | TGI (UO-31 renal) | TGI (M14 melanoma) | TGI (MDA-MB-435) | TGI (T-47D breast) | TGI (RPMI-8226 leukemia) | TGI (NCI-H23 lung) | TGI (SK-OV-3 ovarian) | TGI (SK-MEL-5 melanoma) | TGI (HT29 colon) | TGI (MDA-MB-231 breast) |
| --- | --- | --- | --- | --- | --- | --- | --- | --- | --- | --- | --- | --- | --- | --- | --- | --- | --- | --- | --- |
| O=C1O/C(=C\c2ccc(O)c(Br)c2)C(c2ccc(O)cc2)=C1Cl | > 100 µM | 49.5 µM | > 100 µM | 74.5 µM | 77.7 µM | > 100 µM | > 100 µM | > 100 µM | > 100 µM | > 100 µM | > 100 µM | > 100 µM | > 100 µM | 34 µM | 61.6 µM | > 100 µM | 53.5 µM | > 100 µM | – |
| COC(=O)c1cc(C)ccc1/C=C1\Cc2cc(C)c(C)cc2C1=O | > 100 µM | – | > 100 µM | > 100 µM | > 100 µM | > 100 µM | > 100 µM | > 100 µM | > 100 µM | > 100 µM | > 100 µM | – | > 100 µM | > 100 µM | > 100 µM | – | > 100 µM | > 100 µM | > 100 µM |
| C=C(Cl)C(C)(Cl)CCC(Cl)C(C)(C)Cl (stereo not given) | > 100 µM | > 100 µM | > 100 µM | > 100 µM | > 100 µM | – | > 100 µM | > 100 µM | > 100 µM | > 100 µM | > 100 µM | > 100 µM | – | 48.7 µM | > 100 µM | > 100 µM | > 100 µM | > 100 µM | 83.3 µM |
| CCOC(=O)c1ccc2c(c1)nc1n2C(c2c(F)cccc2F)SC1 (stereo not given) | 73.7 µM | 74.6 µM | > 100 µM | – | > 100 µM | > 100 µM | > 100 µM | > 100 µM | > 100 µM | > 100 µM | > 100 µM | > 100 µM | 49.9 µM | > 100 µM | 77.3 µM | > 100 µM | 26.1 µM | 56.4 µM | > 100 µM |
| CC(=O)O[C@H]1C(=O)[C@@]2(C)C(C(OC(=O)c3ccccc3)[C@]3(O)CC(OC(=O)C(O)C(NC(=O)c4ccccc4)c4ccc(F)cc4)C(C)=C1C3(C)C)[C@]1(OC(C)=O)CO[C@@H]1C[C@@H]2O (stereo not given in full) | 1.42 µM | > 10 µM | > 10 µM | – | – | > 10 µM | > 10 µM | > 10 µM | > 10 µM | > 10 µM | > 7.03 µM | – | > 10 µM | 2.09 µM | > 10 µM | > 10 µM | > 3.32 µM | > 3.4 µM | 0.608 µM |
| C1COC2SC3=C(SC(=C4SC5=C(SCCS5)S4)S3)SC2O1 (stereo not given) | > 100 µM | > 100 µM | > 100 µM | – | > 100 µM | > 100 µM | > 100 µM | > 100 µM | > 100 µM | > 100 µM | > 100 µM | > 100 µM | > 100 µM | – | > 100 µM | > 100 µM | > 100 µM | > 100 µM | > 100 µM |
| CCc1cc(-c2nsc(=O)o2)c(S(=O)(=O)CC)s1 | > 100 µM | > 100 µM | > 100 µM | > 100 µM | > 100 µM | > 100 µM | > 100 µM | > 100 µM | – | > 100 µM | > 100 µM | > 100 µM | > 100 µM | > 100 µM | > 100 µM | > 100 µM | > 100 µM | > 100 µM | – |
| COc1ccccc1C1C2=C(COC2=O)OC(C)(C)Oc2cc3c(cc21)OCO3 (stereo not given) | > 45.6 µM | > 31 µM | > 65.4 µM | – | 24.7 µM | > 100 µM | 12.8 µM | > 29.8 µM | > 51.4 µM | > 100 µM | > 85.1 µM | – | > 100 µM | > 60.7 µM | > 59.2 µM | > 100 µM | 21 µM | 17.3 µM | > 32.6 µM |
| CC12CN(CC[N+](C)(C)C)CC1(C)C1CCC2O1 (stereo not given) | > 100 µM | > 100 µM | > 100 µM | – | > 100 µM | > 100 µM | > 100 µM | > 100 µM | > 100 µM | > 100 µM | > 100 µM | > 100 µM | > 100 µM | > 100 µM | > 100 µM | > 100 µM | > 100 µM | > 100 µM | > 100 µM |
| Cc1ccc(SCC(OCn2cnc3c(N)ncnc32)[C@H](C)F)cc1 (stereo not given in full) | > 100 µM | > 100 µM | > 100 µM | – | – | > 100 µM | – | > 100 µM | > 100 µM | > 100 µM | > 100 µM | > 100 µM | > 100 µM | > 100 µM | > 100 µM | > 100 µM | > 100 µM | > 100 µM | > 100 µM |
